Assay [1] can be described thus: Inhibition of HIV-1 integrase strand transfer activity assessed as reduction in viral replication in presence of 10% fetal bovine serum.
The nature of assay [2]: Inhibition of HIV-1 integrase strand transfer activity assessed as reduction in viral replication in presence of 10% fetal bovine serum and 15 mg/mL human serum albumin.
Assay [3] is described as follows: Inhibition of HIV-1 integrase strand transfer activity assessed as reduction in viral replication in presence of 40% human serum.

For orientation: EC50 means the concentration needed to bring the measured effect to its halfway point.

As for `CN(C)S(=O)(=O)c1cc(F)ccc1CNC(=O)c1nc2n(c(=O)c1O)CCCC21CCCC1`, the results for the half-maximal effective concentration (EC50) in assay [1] and in assay [2] were 3 nM and 27 nM, respectively.

In the case of `O=C(NCc1ccc(F)cc1)c1nc2n(c(=O)c1O)CCCC21CCCC1`, the figures for the EC50 in assay [1] and in assay [2] were 2 nM and 19 nM, respectively.

With `CC1(C)OCCn2c1nc(C(=O)NCc1ccc(F)cc1Cl)c(O)c2=O`, the EC50 in assay [1] turned out to be 53 nM; in assay [2], 857 nM.

As to `Cc1cc(CNC(=O)c2nc3n(c(=O)c2O)CCOC3(C)C)ccc1F`, the half-maximal effective concentration (EC50) came to 1 nM in assay [1] and 90 nM in assay [2].

For the compound `Cc1cc(F)ccc1CNC(=O)c1nc2n(c(=O)c1O)CCOC2(C)C`, the EC50 in assay [1] worked out at 21 nM; in assay [2], 557 nM.

With `CC1(C)OCCn2c1nc(C(=O)NCc1ccc(F)c(Cl)c1)c(O)c2=O`, the EC50 turned out to be 2 nM in assay [1] and 84 nM in assay [2].

In the case of `CC1(C)OCCn2c1nc(C(=O)NCc1ccc(F)cc1)c(O)c2=O`, the values for the EC50 in assay [3], in assay [1] and in assay [2] were 25 nM, 2 nM and 17 nM, respectively.

As to `O=C(NCc1ccc(F)cc1N1CCCCS1(=O)=O)c1nc2n(c(=O)c1O)CCCC21CCCC1`, the EC50 in assay [1] is 2 nM; in assay [2], 21 nM.

As for `O=C(NCc1ccc(F)cc1S(=O)(=O)N1CCOCC1)c1nc2n(c(=O)c1O)CCCC21CCCC1`, the EC50 is 3 nM in assay [1] and 14 nM in assay [2].

Turning to `CS(=O)(=O)c1cc(F)ccc1CNC(=O)c1nc2n(c(=O)c1O)CCCC21CCCC1`, the concentration for a half-maximal effect (EC50) in assay [1] was found to be 1 nM; in assay [2] it was 8 nM.

`Cc1cc(CNC(=O)c2nc3n(c(=O)c2O)CCCC32CCCC2)ccc1F`: the EC50 in assay [1] worked out at 5 nM; in assay [2] it was 149 nM.

For `CC1(C)OCCn2c1nc(C(=O)NCc1ccc(F)cc1N1CCCCS1(=O)=O)c(O)c2=O`, the half-maximal effective concentration (EC50) came to 2 nM in assay [1] and 7 nM in assay [2].

As to `CN(C)S(=O)(=O)c1c(CNC(=O)c2nc3n(c(=O)c2O)CCOC3(C)C)ccc(F)c1F`, the 50% effective concentration (EC50) amounted to 3 nM in assay [1] and 12 nM in assay [2].

For `CC1(C)OCCn2c1nc(C(=O)NCc1ccc(F)cc1S(C)(=O)=O)c(O)c2=O`, the EC50 in assay [1] stood at 3 nM; in assay [2] it was 6 nM.

In the case of `CNC(=O)c1cc(F)ccc1CNC(=O)c1nc2n(c(=O)c1O)CCOC2(C)C`, the half-maximal effective concentration (EC50) turned out to be 2 nM in assay [1] and 3 nM in assay [2].

As for `CC1(C)OCCn2c1nc(C(=O)NCc1ccc(F)cc1N1CCOCC1)c(O)c2=O`, the concentration for a half-maximal effect (EC50) in assay [1] amounted to 2 nM; in assay [2], 19 nM.

The values above are taken from BindingDB's records for doi:10.1016/j.bmcl.2018.05.027 (Bristol-Myers Squibb Research and Development, 2018).
